The values below come from the supplement of paper PMC7695840.

In assay [1] the test system is Staphylococcus aureus MW2 (mecA+). Kind of assay: IC50 (growth, competition assay). As to conditions: cefoxitin: subinhibitory. The gist of the method:
(§1)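 Signals from DsRed (540/590) and GFP (485/520) were scaled on every plate between single-strain control medians, with No Treatment then set to 0.5. The cells were a 1:1 mix of pre-induced fluorescent S. aureus MW2 strains with and without the resistance gene, grown unshaken for 20 h at 37 °C and 90% humidity in LB in 1536-well plates under a subinhibitory drug dose set each day. Each strain's IC50 was defined as the dose halving the No Treatment signal, or the maximal signal.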

For assay [2], the system named is Staphylococcus aureus MW2 delta-mecA (mecA-). Put plainly: IC50 (growth, competition assay). The settings on record: cefoxitin: subinhibitory. Put shortly:
as §1

Each structure is given as a SMILES string.

`Cc1ccc(C(=O)Nc2ccc(CN3CCN(C)CC3)c(C(F)(F)F)c2)cc1C#Cc1cnc2cccnn12`: the IC50 in assay [1] (fluorescent label: DsRed) amounted to 21.8 µM; in assay [1] (fluorescent label: GFP), 27.4 µM; in assay [2] (fluorescent label: DsRed) it was 8.28 µM; in assay [2] (fluorescent label: GFP), 4.54 µM.
Taken in the same sequence, the figures for `CCOc1nc2cccc(C(=O)OCc3oc(=O)oc3C)c2n1Cc1ccc(-c2ccccc2-c2noc(=O)[nH]2)cc1` [EDARBI] were 18.7 µM, 58.9 µM, 12.8 µM and < 9.85 µM.
Taken in the same sequence, the figures for `CO/N=C(\C(=O)N[C@@H]1C(=O)N2C(C(=O)O)=C(CSc3nnnn3C)CS[C@H]12)c1csc(N)n1` [CEFMAX] were < 9.85 µM, < 9.85 µM, < 9.85 µM and < 9.85 µM.
Regarding `C[C@H]1[C@H](C)CC[C@]2(C(=O)O)CC[C@]3(C)C(=CC[C@@H]4[C@@]5(C)C[C@@H](O)[C@H](O)[C@@](C)(CO)[C@@H]5CC[C@]43C)[C@H]12` [ASIATIC ACID], the IC50 in assay [1] (fluorescent label: DsRed) was 109 µM; in assay [1] (fluorescent label: GFP), > 150 µM; in assay [2] (fluorescent label: DsRed), 123 µM; in assay [2] (fluorescent label: GFP), 115 µM.
